Reference: US11725036B2, “Modified lipidated relaxin B chain peptides and their therapeutic use” (Sanofi, priority 2018, dated 2023)
≈ marks a conversion by molar mass, not a printed value. Where two headings read alike, the source gives them in different places. Marks after values point to notes of the source that are not given here. Starred links: 1 amine or outer side, 2 acyl side, 3 side chain; linkers in the order of their positions; H or OH if unused. Non-standard residues stand in square brackets, D forms with d. Residues, ends and D or L forms follow the SMILES beside them. Groups on a side chain read outwards from the residue. *: point of attachment. X1 = CCCCCCCCCCCCCCCC(=O)N[C@@H](CCC(=O)N[C@@H](CCC(=O)N[C@@H](CCC(=O)NCCCOCCOCCOCCCNC(=O)CCC(=O)NCCCOCCOCCOCCCNC(=O)CCC(=O)NCCCOCCOCCOCCCN*)C(=O)O)C(=O)O)C(=O)O; X2 = CCCCCCCCCCCCCCCC(=O)N[C@@H](CCC(=O)N[C@@H](CCC(=O)N[C@@H](CCC(=O)NCCCOCCOCCOCCCNC(=O)CCC(=O)NCCCOCCOCCOCCCN*)C(=O)O)C(=O)O)C(=O)O; Suc = O=C(CCC(=O)[*:2])[*:1]; αMeK = C[C@](N)(CCCCN)C(=O)O; Aib = CC(C)(N)C(=O)O

Columns and labels:
[1] = Stability in human plasma; type: in vitro ADME; settings: for Human Plasma stability % remaining: T = 0, 37° C., 5 μM; for remaining at 1 h, 5 μM / remaining at 4 h, 5 μM: human, plasma (sodium or lithium heparin), 37° C.
Description: (§1) Prior to the testing of stability in plasma (or blood) of a peptide batch, its purity (HPLC-UV) was determined.
(§2) Rat and Human plasma: anti-coagulant sodium or lithium heparin.
(§3) 100 μM solution of study compound in 50 mM phosphate buffer pH 7.4.
(§4) 950 μL plasma (or blood) was pre-incubated for 5 min at 37° C. 50 μL of compound stock solution was added. Final compound concentration=5 μM. Vortex and transfer 150 μL plasma (or blood) into an Eppendorf for each time point. The time points […] were carried out in duplicate for each species.
(§5) After incubation, 150 μL plasma (or blood) was extracted with 600 μL Acetonitrile containing 1% TFA. Said mixture was then vortexed and centrifuged 10 min at 14600 rpm. 200 μL supernatant was dried under N2. Sample was then reconstituted in 200 μL of H2O/CH3CN 98/2+0.1% FA+50 ng/ml Labetalol and analyzed using the analytical system used in solubility and stability studies.
(§6) For determination of the amount of the remaining peptide, the peak areas of the target compound at t0 and each time point […] were compared, resulting in “% remaining peptide”, following the equation: % remaining peptide=[(peak area peptide time)×100]/peak area peptide t0. The stability was expressed as “% remaining peptide”.

Stability in human blood = type: in vitro ADME; settings: for Human blood stability % remaining: T = 0, 37° C., 5 μM; for remaining at 1 h, 5 μM / remaining at 4 h, 5 μM: human, whole blood (sodium or lithium heparin), 37° C.
Description: as §1
(§7) Rat and Human blood: anti-coagulant sodium or lithium heparin.
as §3, §4, §5, §6

Stability in rat blood = type: in vitro ADME; settings: for Rat blood stability % remaining: T = 0, 37° C., 5 μM; for remaining at 1 h, 5 μM / remaining at 4 h, 5 μM: rat, whole blood (sodium or lithium heparin), 37° C.
Description: as §1, §7, §3, §4, §5, §6

Stability in rat plasma = type: in vitro ADME; settings: for Rat plasma stability % remaining: T = 0, 37° C., 5 μM; for remaining at 1 h, 5 μM / remaining at 4 h, 5 μM: rat, plasma (sodium or lithium heparin), 37° C.
Description: as §1, §2, §3, §4, §5, §6

in vivo = test: in vivo; set-up: species or system Sprague Dawley rats; settings: Sprague Dawley, rat; for bioavailability / Cmax / Tmax: sc; for Cmax / Tmax: 3 mg/kg
Description: Prior to the testing of a peptide batch, its purity (HPLC-UV) was determined. Dose was corrected for presence of salts, solvent and purity. Bioanalytical screening method for quantification of peptides in rat: Sprague Dawley rats were dosed with study peptide at a dose of 1 mg/kg intravenously (i.v.) or 3 mg/kg subcutaneously (s.c.) as a solution in PBS (0.2 mg/ml and 0.6 mg/ml respectively). Blood samples were collected after: 0.083, 0.25, 0.5, 1, 2, 4, 8, 24, 48 and 72 h (i.v. route) and 0.25, 0.5, 1, 2, 4, 6, 8, 10, 24, 48 and 72 h (s.c route) post application. Plasma samples were analyzed after protein precipitation via liquid chromatography mass spectrometry (LC/MS). PK parameters and half-life were calculated using Phoenix 64 (WinNonlin 6.4)-Pharsight (Certara™) (non-compartment model). Values below the limit of quantification (BLQ) were replaced by zero for subsequent calculations and PK analysis. T½: in-vivo half-life, time required for test compound plasma concentration to be divided by two during the PK experiment. C0: Extrapolated test compound plasma concentration at t=0 time point (i.v. route). Cmax: maximal test compound plasma concentration at the indicated time point (s.c. route). Tmax: Time point where Cmax was attained. F %: s.c. vs i.v. bioavailability, dose-corrected area under curve (AUC) s.c. route divided by AUC i.v.

[2] = Solubility testing in buffer; type: physicochemical; settings: target solubility 10.0 mg/ml
[3] = acetate buffer 50 mM pH 4.5, read-out: Solubility Acetate buffer pH 4.5
[4] = phosphate buffer 50 mM pH 7.4, read-out: Solubility phosphate buffer pH 7.4

Row | Structure (SMILES) | Human Plasma stability % remaining [1] | remaining at 1 h, 5 μM [1] | remaining at 4 h, 5 μM [1] | Human blood stability % remaining (Stability in human blood) | remaining at 1 h, 5 μM (Stability in human blood) | remaining at 4 h, 5 μM (Stability in human blood) | Rat blood stability % remaining (Stability in rat blood) | remaining at 1 h, 5 μM (Stability in rat blood) | remaining at 4 h, 5 μM (Stability in rat blood) | Rat plasma stability % remaining (Stability in rat plasma) | remaining at 1 h, 5 μM (Stability in rat plasma) | remaining at 4 h, 5 μM (Stability in rat plasma) | C0 (in vivo; iv, 1 mg/kg) | half-life (in vivo; iv, 1 mg/kg) | bioavailability (in vivo) | Cmax (in vivo) | Tmax (in vivo) | solubility [2, 3] | solubility [2, 4] | T½ (h), in-vivo half-life (in vivo; iv, 1 mg/kg)
1 | CCCCCCCCCCCCCCCC(=O)N[C@@H](CCC(=O)N[C@@H](CCC(=O)N[C@@H](CCC(=O)NCCCOCCOCCOCCCNC(=O)CCC(=O)NCCCOCCOCCOCCCNC(=O)CCC(=O)NCCCC[C@H](NC(=O)CNC(=O)[C@H](CCC(=O)O)NC(=O)C(C)(C)NC(=O)C(C)(C)NC(=O)[C@@H](NC(=O)[C@H](CCCCNC(C)=O)NC(=O)[C@H](C)NC(=O)[C@H](CCCNC(=N)N)NC(=O)[C@@H](NC(=O)[C@H](CCCCN)NC(=O)[C@H](CCC(=O)O)NC(=O)[C@H](CCCNC(=N)N)NC(=O)CNC(=O)[C@H](CCC(=O)O)NC(=O)[C@H](CC(C)C)NC(C)=O)C(C)C)[C@@H](C)CC)C(=O)N[C@@H](CO)C(=O)N[C@H](C(=O)N[C@@H](Cc1c[nH]c2ccccc12)C(=O)N[C@@H](CO)C(=O)NC(C)(C)C(=O)N[C@@H](CCCNC(=N)N)C(=O)N[C@@H](CCCCN)C(=O)N[C@@H](CCCCNC(C)=O)C(N)=O)[C@@H](C)O)C(=O)O)C(=O)O)C(=O)O [compound 4] (Ac-LEGREKVRAK(Ac)I[Aib][Aib]EGK([Suc-X2])STWS[Aib]RKK(Ac)-NH2) | 100% | 100% | 100% | 100* % | 100% | 99% | 100* % | 102% | 86% | 100% | 100% | 59% | 2750 nM | 8.71 h | 69% | 1990 nM | 8 h | 9.63 mg/mL (≈ 2350 µM) | 7.71 mg/mL (≈ 1880 µM) | –
2 | CCCCCCCCCCCCCCCC(=O)N[C@@H](CCC(=O)N[C@@H](CCC(=O)N[C@@H](CCC(=O)NCCCOCCOCCOCCCNC(=O)CCC(=O)NCCCOCCOCCOCCCNC(=O)CCC(=O)NCCCOCCOCCOCCCNC(=O)CCC(=O)NCCCC[C@H](NC(=O)CNC(=O)[C@H](CCC(=O)O)NC(=O)C(C)(C)NC(=O)C(C)(C)NC(=O)[C@@H](NC(=O)[C@H](CCCCNC(C)=O)NC(=O)[C@H](C)NC(=O)[C@H](CCCNC(=N)N)NC(=O)[C@@H](NC(=O)[C@H](CCCCN)NC(=O)[C@H](CCC(=O)O)NC(=O)[C@H](CCCNC(=N)N)NC(=O)CNC(=O)[C@H](CCC(=O)O)NC(=O)[C@H](CC(C)C)NC(C)=O)C(C)C)[C@@H](C)CC)C(=O)N[C@@H](CO)C(=O)N[C@H](C(=O)N[C@@H](Cc1ccccc1)C(=O)N[C@@H](CO)C(=O)N[C@@](C)(CCCCN)C(=O)N[C@@H](CCCNC(=N)N)C(=O)N[C@@H](C)C(=O)N[C@@H](CCCCNC(C)=O)C(N)=O)[C@@H](C)O)C(=O)O)C(=O)O)C(=O)O [compound 3] (Ac-LEGREKVRAK(Ac)I[Aib][Aib]EGK([Suc-X1])STFS[αMeK]RAK(Ac)-NH2) | 99% | 95% | 100% | 100* % | 95% | 95% | 100* % | 95% | 84% | 98% | 100% | 87% | 3200 nM | – | 83% | 2300 nM | 8 h | 11.1 mg/mL (≈ 2550 µM) | 11.5 mg/mL (≈ 2640 µM) | 7.8 h
